# Values quoted from earlier work in patent US20240060990A1, “SPATIAL SIGNALING NETWORKS FOR MULTIPLEXED DRUG RESPONSE MEASUREMENT AND MODELING” (Georgia Tech Research Corporation, priority 2022, published 2024).
# System: PC-9 cell cultures
# Details: PC-9 cells, combined with Osimertinib; cited from earlier work
row,SMILES,cell apoptosis
1,"C=CC(=O)N1CCC(C)(Nc2cccc(C(F)(F)F)c2)C1 (centres unmarked) [YAP/TEAD inhibitor, MYF-01-37]",enhanced
2,"CC(C)Nc1cc(-c2c[nH]c(C(=O)N[C@H](CO)c3cccc(Cl)c3)c2)c(Cl)cn1 [VRT, VRT752271]",enhanced
